Laboratory results: patent US20230024442A1, “BIFUNCTIONAL COMPOUNDS FOR GRADING BTK VIA UBIQUITIN PROTEOSOME PATHWAY” (NURIX THERAPEUTICS, INC., priority 2019, published 2023)

target: T1, BTK (Homo sapiens, UniProt Q06187); experiment: Cellular BTK HTRF Assay (BTK levels in Ramos cells); assay type: cell-based; details: Ramos cells, 50,000 cells, incubated four hours at 37° C.; BTK levels by Cisbio Total-BTK HTRF relative to DMSO-treated cells
T1 construct: endogenous in cells; host or cells: Ramos (ATCC CRL-1596)
Method: Ramos (CRL-1596) cells were obtained from American Type Culture Collection and were grown in RPMI-1640 media (ATCC, 30-2001) supplemented with 10% heat-inactivated FBS (Corning Premium Fetal Bovine Serum from Fisher, MT35015CV).
Compounds of the present invention were added to 50,000 Ramos cells in round-bottom 96 well plates with a final DMSO concentration of […] and were incubated at 37° C. 5% CO2 for four hours. BTK levels were determined using Cisbio Total-BTK HTRF ([…] Time-Resolved Fluorescence) kit (63ADK064PEG) according to manufacturer's protocol. Briefly, cells were incubated in 1× supplied lysis buffer for 30 minutes. In an opaque white low volume 96 well plate (Cisbio, 66PL96005), cell lysate was combined with two different specific BTK antibodies, one conjugated with Eu^3+-Cryptate FRET donor and one conjugated with d2 FRET acceptor. Assay controls include wells containing cell lysate with only the Eu^3+-Cryptate FRET donor antibody and wells containing both HTRF antibodies and lysis buffer without cells or control lysate provided by Cisbio. HTRF ratio was calculated as (acceptor signal at 665 nm/donor signal at 620 nm)×10^4. Background HTRF levels were determined from the control well containing the donor, but no acceptor, antibody. Background HTRF levels were subtracted from all samples. Readouts were reported as HTRF levels relative to HTRF levels of DMSO-treated cells. Four-parameter non-linear regressions were performed in GraphPad Prism 7.02 to obtain DC50 values. DC50 values are provided in Table 7, wherein A<1 nM, 1 nM≤B≤10 nM, and 10 nM<C<1 μM.

T1 sequence (Q06187 whole entry): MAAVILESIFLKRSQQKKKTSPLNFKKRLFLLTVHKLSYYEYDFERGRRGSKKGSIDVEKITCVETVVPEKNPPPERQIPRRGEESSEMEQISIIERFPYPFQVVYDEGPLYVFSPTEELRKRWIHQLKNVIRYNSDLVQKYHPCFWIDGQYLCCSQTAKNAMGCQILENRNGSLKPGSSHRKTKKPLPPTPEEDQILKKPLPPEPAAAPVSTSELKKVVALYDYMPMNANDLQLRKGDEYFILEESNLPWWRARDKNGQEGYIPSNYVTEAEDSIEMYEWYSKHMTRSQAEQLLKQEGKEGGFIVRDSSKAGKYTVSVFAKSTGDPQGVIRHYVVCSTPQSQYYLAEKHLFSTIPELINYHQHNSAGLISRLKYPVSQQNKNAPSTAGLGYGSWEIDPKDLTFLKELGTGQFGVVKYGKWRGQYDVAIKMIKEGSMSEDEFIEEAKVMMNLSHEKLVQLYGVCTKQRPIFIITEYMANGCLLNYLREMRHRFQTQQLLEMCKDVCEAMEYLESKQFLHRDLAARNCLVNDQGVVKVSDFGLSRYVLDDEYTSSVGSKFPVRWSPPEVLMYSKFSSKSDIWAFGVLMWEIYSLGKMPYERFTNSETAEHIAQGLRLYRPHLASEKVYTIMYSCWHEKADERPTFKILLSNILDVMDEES

First: Cn1cc(-c2ccnc(-n3ccc4cc(C5CC5)cc(F)c4c3=O)c2CO)cc(Nc2cc3n(n2)CCN(C(=O)CCOCCCc2ccc4c(c2)C(=O)N(C2CCC(=O)NC2=O)C4=O)C3)c1=O (stereo not drawn) [Compound 24]
Second: Cn1cc(-c2ccnc(-n3ncc4cc(C(C)(C)C)cc(F)c4c3=O)c2CO)cc(Nc2cc3n(n2)CCN(C(=O)CCOCCCc2cccc4c2CN(C2CCC(=O)NC2=O)C4=O)C3)c1=O (stereo not drawn) [Compound 2]
The DC50 of the first is lower: 1 to 10 nM for the first, 10 to 1000 nM for the second.

Compared with `Cn1cc(-c2ccnc(-n3ncc4cc(C(C)(C)C)cc(F)c4c3=O)c2CO)cc(Nc2cc3n(n2)CCN(C(=O)CCCc2cccc4c2CN(C2CCC(=O)NC2=O)C4=O)C3)c1=O` (stereo not drawn) [Compound 13], `Cn1cc(-c2ccnc(-n3ncc4cc(C(C)(C)C)cc(F)c4c3=O)c2CO)cc(Nc2cc3n(n2)CCN(CCCCCCc2cccc4c2CN(C2CCC(=O)NC2=O)C4=O)C3)c1=O` (stereo not drawn) [Compound 19] is lower in DC50: 10 to 1000 nM for the first, 1 to 10 nM for the second.

First: C[C@H]1CN(C(=O)[C@H]2C[C@@H](OCCNc3cccc4c3C(=O)N(C3CCC(=O)NC3=O)C4=O)C2)CCN1c1ccc(Nc2cc(-c3ccnc(N4CCn5c(cc6c5CC(C)(C)C6)C4=O)c3CO)cn(C)c2=O)nc1 (stereo partly drawn) [Compound 25]
Second: C[C@H]1CN(C(=O)[C@H]2C[C@H](OCCCc3cccc4c3CN(C3CCC(=O)NC3=O)C4=O)C2)CCN1c1ccc(Nc2cc(-c3ccnc(N4CCn5c(cc6c5CC(C)(C)C6)C4=O)c3CO)cn(C)c2=O)nc1 (stereo partly drawn) [Compound 29]
The DC50 of the first is lower: under 1 nM for the first, 1 to 10 nM for the second.

`C[C@H]1CN(C(=O)CN2CCN(CCCc3cccc4c3C(=O)N(C3CCC(=O)NC3=O)C4=O)CC2)CCN1c1ccc(Nc2cc(-c3ccnc(N4CCn5c(cc6c5CC(C)(C)C6)C4=O)c3CO)cn(C)c2=O)nc1` (stereo partly drawn) [Compound 32] and `C[C@H]1CN(C(=O)CN2CCN(CCCc3cccc4c3CN(C3CCC(=O)NC3=O)C4=O)CC2)CCN1c1ccc(Nc2cc(-c3ccnc(N4CCn5c(cc6c5CC(C)(C)C6)C4=O)c3CO)cn(C)c2=O)nc1` (stereo partly drawn) [Compound 30] fall in the same range of DC50: 1 to 10 nM for the first, 1 to 10 nM for the second.

Compared with `Cn1cc(-c2ccnc(-n3ncc4cc(C(C)(C)C)cc(F)c4c3=O)c2CO)cc(Nc2cc3n(n2)CCN(C(=O)CN2CCN(CCCc4cccc5c4CN(C4CCC(=O)NC4=O)C5=O)CC2)C3)c1=O` (stereo not drawn) [Compound 16], `Cn1cc(-c2ccnc(-n3ncc4cc(C(C)(C)C)cc(F)c4c3=O)c2CO)cc(Nc2cc3n(n2)CCN(C(=O)CCOCCOCCOCCNc2cccc4c2C(=O)N(C2CCC(=O)NC2=O)C4=O)C3)c1=O` (stereo not drawn) [Compound 3] is lower in DC50: 10 to 1000 nM for the first, 1 to 10 nM for the second.

Compared with `CN[C@@H](C)C(=O)N[C@H](C(=O)N1CCC[C@H]1c1nc(C(=O)c2cccc(OCCOCCC(=O)N3CCn4nc(Nc5cc(-c6ccnc(-n7ncc8cc(C(C)(C)C)cc(F)c8c7=O)c6CO)cn(C)c5=O)cc4C3)c2)cs1)C1CCCCC1` [Compound 6, (S)—N—((S)-2-((S)-2-(4-(3-(2-(3-(2-((2′-(6-(tert-butyl)-8-fluoro-1-oxophthalazin-2(1H)-yl)-3′-(hydroxymethyl)-1-methyl-6-oxo-1,6-dihydro-[3,4′-bipyridin]-5-yl)amino)-6,7-dihydropyrazolo[1,5-a]pyrazin-5(4H)-yl)-3-oxopropoxy)ethoxy)benzoyl)thiazol-2-yl)pyrrolidin-1-yl)-1-cyclohexyl-2-oxoethyl)-2-(methylamino)propanamide], `C[C@H]1CN(C(=O)CCOCCCc2cccc3c2CN(C2CCC(=O)NC2=O)C3=O)CCN1c1ccc(Nc2cc(-c3ccnc(N4CCn5c(cc6c5CC(C)(C)C6)C4=O)c3CO)cn(C)c2=O)nc1` (stereo partly drawn) [Compound 43] is lower in DC50: 10 to 1000 nM for the first, 1 to 10 nM for the second.

`C[C@H]1CN(C(=O)CN2CCN(CCc3cccc4c3CN(C3CCC(=O)NC3=O)C4=O)CC2)CCN1c1ccc(Nc2cc(-c3ccnc(N4CCn5c(cc6c5CC(C)(C)C6)C4=O)c3CO)cn(C)c2=O)nc1` (stereo partly drawn) [Compound 26] and `C[C@H]1CN(C(=O)CCOCCC(=O)Nc2cccc3c2CN(C2CCC(=O)NC2=O)C3=O)CCN1c1ccc(Nc2cc(-c3ccnc(N4CCn5c(cc6c5CC(C)(C)C6)C4=O)c3CO)cn(C)c2=O)nc1` (stereo partly drawn) [Compound 57] fall in the same range of DC50: 1 to 10 nM for the first, 1 to 10 nM for the second.

For `C[C@H]1CN(C(=O)CCOCCOCCOCCOCCOCCCc2cccc3c2CN(C2CCC(=O)NC2=O)C3=O)CCN1c1ccc(Nc2cc(-c3ccnc(N4CCn5c(cc6c5CC(C)(C)C6)C4=O)c3CO)cn(C)c2=O)nc1` (stereo partly drawn) [Compound 53], the DC50 was under 1 nM.
